Source: patent US20160045505A1, “COMPOUNDS AND COMPOSITIONS FOR THE TREATMENT OF PARASITIC DISEASES” (NOVARTIS AG, priority 2013, published 2016)
Like-named read-outs stand apart in the source and are kept apart here.

Key:
[1] = test system: Leishmania donovani axenic amastigote parasites; test: Leishmania donovani axenic amastigote proliferation assay (Cell TiterGlo luminescence, 2 day incubation); format: cell-based; details: Leishmania donovani, axenic amastigotes, inhibition of proliferation; read-out: L. donovani amastigotes EC50
[2] = test system: L. donovani HU3 strain in mouse peritoneal macrophages; test: Assay for proliferation of Leishmania parasites in infected mouse peritoneal macrophages (SybrGreen staining, high-content imaging, 5 days); format: cell-based, Leishmania donovani; details: Leishmania donovani, Peritoneal macrophage, L. donovani in mouse peritoneal macrophages, inhibition of proliferation; read-out: L. donovani Macrophage EC50
[3] = test system: Trypanosoma cruzi amastigotes (Tulahuen strain expressing Lac-Z) cultured in 3T3 fibroblast cells; test: microbe, parasite or virus in culture; format: cell-based; details: Trypanosoma cruzi, TULAHUEN
[4] = Fibroblast, T. cruzi amastigotes in 3T3 fibroblast cells, inhibition of proliferation, read-out: T cruzi EC50

SMILES | EC50 [1] | EC50 [2] | EC50 [3, 4] | EC50 ([3]; NIH3T3, 144 h, T. cruzi amastigotes in 3T3 cells, 6 day incubation, read-out: EC50)
CC(C)OC(=O)Nc1cnc2nc(-c3cc(NC(=O)c4ccc(F)o4)ccc3Cl)cn2c1 [Compound 1, Propan-2-yl N-{2-[2-chloro-5-(5-fluorofuran-2-amido)phenyl]imidazo[1,2-a]pyrimidin-6-yl}carbamate] | 0.088 µM | 0.243 µM | 0.03 µM | 0.03 µM
CC(C)OC(=O)Nc1cnc2nc(-c3cc(NC(=O)N4CCCC4)ccc3Cl)cn2c1 [Compound 2, propan-2-yl N-(2-{2-chloro-5-[(pyrrolidin-1-yl)carbonylamino]phenyl}imidazo[1,2-a]pyrimidin-6-yl)carbamate] | 0.096 µM | 0.268 µM | 0.243 µM | –
CC(C)OC(=O)Nc1cnc2nc(-c3cccc(NC(=O)c4ccc(F)o4)c3)cn2c1 [Compound 3, propan-2-yl N-{2-[3-(5-fluorofuran-2-amido)phenyl]imidazo[1,2-a]pyrimidin-6-yl}carbamate] | 0.24 µM | 0.43 µM | 0.51 µM | –
CC(C)OC(=O)Nc1cnc2nc(-c3cc(NC(=O)c4ccc(C#N)o4)ccc3Cl)cn2c1 [Compound 48] | 0.082 µM | 0.139 µM | 0.157 µM | –
CC(C)OC(=O)Nc1cnc2nc(-c3cc(NC(=O)c4cnc(Cl)s4)ccc3Cl)cn2c1 [Compound 51] | 3.8 µM | 9.33 µM | 1.49 µM | –
COC(C)C(=O)Nc1ccc(Cl)c(-c2cn3cc(NC(=O)OC(C)C)cnc3n2)c1 (stereo not shown) [Compound 54] | 1.97 µM | 14.5 µM | 1.29 µM | –
CC(C)OC(=O)Nc1cnc2nc(-c3cc(NC(=O)C4CCCO4)ccc3Cl)cn2c1 (stereo not shown) [Compound 55] | 7.23 µM | 27.1 µM | 4.14 µM | –
CC(=O)OC(C)C(=O)Nc1ccc(Cl)c(-c2cn3cc(NC(=O)OC(C)C)cnc3n2)c1 (stereo not shown) [Compound 56] | 19.2 µM | > 50 µM | 11.5 µM | –
CC(C)OC(=O)Nc1cnc2nc(-c3cc(NC(=O)C4CCCCO4)ccc3Cl)cn2c1 (stereo not shown) [Compound 57] | 0.861 µM | 2.94 µM | 0.411 µM | –
CC(C)OC(=O)Nc1cnc2nc(-c3cc(NC(=O)C(C)OCC(F)(F)F)ccc3Cl)cn2c1 (stereo not shown) [Compound 58] | 14.2 µM | 10.5 µM | 4.53 µM | –
Cc1nc(C(=O)Nc2ccc(Cl)c(-c3cn4cc(NC(=O)OC(C)C)cnc4n3)c2)c[nH]1 [Compound 59] | > 25 µM | > 50 µM | > 20 µM | –
CC(C)OC(=O)Nc1cnc2nc(-c3cc(NC(=O)c4ccc(F)o4)ccc3F)cn2c1 [Compound 63] | 0.089 µM | 0.222 µM | 0.124 µM | –
CC(C)OC(=O)Nc1cnc2nc(-c3cc(NC(=O)c4ccc(F)s4)ccc3F)cn2c1 [Compound 67] | 0.677 µM | 1.13 µM | 0.136 µM | –
Cc1cc(C(=O)Nc2ccc(F)c(-c3cn4cc(NC(=O)OC(C)C)cnc4n3)c2)n[nH]1 [Compound 77] | 9.23 µM | > 50 µM | > 20 µM | –
CC(C)OC(=O)Nc1cnc2nc(-c3cc(NC(=O)[C@@H](N)c4ccccc4)ccc3F)cn2c1 [Compound 84] | > 25 µM | 9.91 µM | 8.62 µM | –
CC(C)OC(=O)Nc1cnc2nc(-c3cc(NC(=O)c4ncc[nH]4)ccc3F)cn2c1 [Compound 92] | > 25 µM | > 28.9 µM | > 20 µM | –
CC(C)OC(=O)Nc1cnc2nc(-c3cc(NC(=O)c4cnc(C5CC5)o4)ccc3F)cn2c1 [Compound 108] | 0.771 µM | 2.41 µM | 1.19 µM | –
Cc1cnoc1C(=O)Nc1ccc(F)c(-c2cn3cc(NC(=O)OC(C)C)cnc3n2)c1 [Compound 111] | > 25 µM | > 50 µM | > 20 µM | –
Cc1nc(C)c(C(=O)Nc2ccc(F)c(-c3cn4cc(NC(=O)C5CCCCO5)cnc4n3)c2)o1 (stereo not shown) [Compound 151] | 0.136 µM | 0.429 µM | 0.59 µM | –

SMILES | EC50 [1] | EC50 [2] | EC50 [3, 4] | EC50 ([3]; NIH3T3, 144 h, T. cruzi amastigotes in 3T3 cells, 6 day incubation, read-out: EC50)
Cc1nc(C)c(C(=O)Nc2ccc(F)c(-c3cn4cc(NC(=O)c5ccc(F)cn5)cnc4n3)c2)o1 [Compound 187] | 0.031 µM | > 50 µM | 0.142 µM | –
O=C(Nc1ccc(F)c(-c2cn3cc(Nc4ncccc4C(F)(F)F)cnc3n2)c1)N1CCCC1 [Compound 191] | 0.028 µM | 0.143 µM | 0.033 µM | –
CC(C)OC(=O)Nc1cnc2nc(-c3cc(NC(=O)N4CCN(C)CC4)ccc3Cl)cn2c1 [Compound 218] | > 25 µM | 31.7 µM | > 20 µM | –
CNC(=O)Nc1ccc(F)c(-c2cn3cc(NC(=O)OC(C)C)cnc3n2)c1 [Compound 220] | 0.606 µM | 4.97 µM | 1.37 µM | –
CC(C)OC(=O)Nc1cnc2nc(-c3cc(NC(=O)N4CCC[C@H]4C(N)=O)ccc3Cl)cn2c1 [Compound 262] | > 25 µM | > 50 µM | > 20 µM | –
CC(C)OC(=O)Nc1cnc2nc(-c3cc(NC(=O)N4CCC(NC(=O)OC(C)(C)C)C4)ccc3Cl)cn2c1 (stereo not shown) [Compound 268] | > 25 µM | 14.5 µM | 10.6 µM | –
CC(C)OC(=O)Nc1cnc2nc(-c3cc(NC(=O)N4CCCC4C)ccc3Cl)cn2c1 (stereo not shown) [Compound 272] | 1.69 µM | 3.37 µM | 1.29 µM | –
CC(C)OC(=O)Nc1cnc2nc(-c3cc(NC(=O)N4CCC(N5CCOCC5)C4)ccc3Cl)cn2c1 (stereo not shown) [Compound 273] | > 25 µM | > 50 µM | > 20 µM | –
CC(C)NC(=O)Nc1ccc(Cl)c(-c2cn3cc(NC(=O)OC(C)C)cnc3n2)c1 [Compound 277] | 6.88 µM | 10.7 µM | 3.9 µM | –
CC(C)OC(=O)Nc1cnc2nc(-c3cc(NC(=O)N4CCC4)ccc3Cl)cn2c1 [Compound 278] | 0.177 µM | 1.08 µM | 1.09 µM | –
CC(C)OC(=O)Nc1cnc2nc(-c3cc(NC(=O)N4CC(=O)C4)ccc3Cl)cn2c1 [Compound 279] | 2.44 µM | 9.59 µM | > 17.5 µM | –
CC(C)OC(=O)Nc1cnc2nc(-c3cc(NC(=O)N4CCC(C)(C(=O)O)C4)ccc3Cl)cn2c1 (stereo not shown) [Compound 280] | > 25 µM | > 42.1 µM | > 20 µM | –
CC(C)OC(=O)Nc1cnc2nc(-c3cc(NC(=O)N4CCC(=O)C4)ccc3Cl)cn2c1 [Compound 281] | 8.7 µM | > 37.1 µM | > 20 µM | –
CC(C)OC(=O)Nc1cnc2nc(-c3cc(NC(=O)N4CCCC4(C)C)ccc3Cl)cn2c1 [Compound 282] | > 25 µM | 10.1 µM | 7.35 µM | –
CC(C)OC(=O)Nc1cnc2nc(-c3cc(NC(=O)N4CC(F)C4)ccc3Cl)cn2c1 [Compound 283] | 0.244 µM | 0.724 µM | 1.32 µM | –
COC1CC(NC(=O)Nc2ccc(Cl)c(-c3cn4cc(NC(=O)OC(C)C)cnc4n3)c2)C1 (stereo not shown) [Compound 284] | > 25 µM | 17 µM | 13 µM | –
CC(C)OC(=O)Nc1cnc2nc(-c3cc(NC(=O)NC4CC4)ccc3Cl)cn2c1 [Compound 285] | 11.7 µM | 16.1 µM | 5.02 µM | –
CC(C)OC(=O)Nc1cnc2nc(-c3cc(NC(=O)N4CC(N(C)C(=O)OC(C)(C)C)C4)ccc3F)cn2c1 [Compound 293] | > 25 µM | > 38.2 µM | > 16.5 µM | –
CC(C)OC(=O)Nc1cnc2nc(-c3cc(NC(=O)N4CC5(COC5)C4)ccc3F)cn2c1 [Compound 294] | > 25 µM | > 44.9 µM | > 20 µM | –
